Test results reported in patent EP4803511A1, “SMALL MOLECULE COMPOUND HAVING SULFONIC ACID OR SULFINIC ACID LACTONE STRUCTURE, COMPOSITION AND USE THEREOF” (Hangzhou Phecdamed Co., Ltd., priority 2023, dated 2025).

How the values were obtained:
IL-1β = IL-1β gene expression in HaCaT after UVB radiation (q-PCR); assay type: cell-based, human; conditions: UVB 80 mJ/cm^2, 24 hrs, dose-dependent
Source text: (§1) In the following Test Examples 6-1 and 6-2, using immortalized keratinocytes (HaCaT) and UVB to establish a model, after the compound to be test was applied to HaCaT, the expression levels of TNF-α, IL-8, IL-1β and EP2 were detected; using immortalized keratinocytes (HaCaT) and capsaicin to establish a model, after the compound to be test was applied to HaCaT, the expression level of TRPV1 was detected, so as to evaluate the soothing effect of the test substance from multiple dimensions.
• 1) Cell inoculation: HaCaT cells were inoculated into a 6-well plate at 6×10^5/well, cultured in an incubator (37°C, 5% CO2) for 12 hrs, and a normal control group (0 mJ/cm^2 + vehicle control), a model control group (80 mJ/cm^2 + vehicle control), a low concentration group (80 mJ/cm^2 + low concentration compound), a medium concentration group (80 mJ/cm^2 + medium concentration compound), and a high concentration group (80 mJ/cm^2 + high concentration compounds) were respectively provided. • 2) UVB modeling: The HaCaT cells were washed 3 times with D'Hanks before UVB radiation, 1 mL of D'Hanks was added into the wells, to make the cells to be immersed, and the control group was coated with tinfoil and placed in the dark. […]

Mn-sod = assay: Zebrafish oxidative aging model (menadione), Mn-sod gene expression by RT-qPCR; assay type: in vivo; conditions: I-8 at 2.5, 7.5, and 22.2 µg/mL, 22 hrs, 4 µM menadione; compared to the modeling group, statistical significance
Experimental: Experimental animal: Healthy wild-type AB strain zebrafish at 48 hpf (hours post-fertilization)
Healthy AB strain zebrafish were taken as experimental animal. A zebrafish oxidative aging model was constructed using chemical mutagenesis with 4 µM menadione as the modeling drug. Fucoxanthin was used as a positive control compound. After treating the zebrafish oxidative aging model with different concentrations of I-8 for 22 hrs, changes in the reactive oxygen species (ROS) content, β-galactosidase activity, and the expression of three antioxidant and anti-aging related genes (Cu/Zn-sod, Mn-sod, and ampk) were respectively detected and statistically analyzed.
During the experiment, the modeling drug, positive compound, and I-8 were dispersed together in the culture water of zebrafish. […] Cell ROX™ Deep Red fluorescent probes and β-galactosidase staining kits were used to specifically label ROS and β-galactosidase in the fish, respectively, and the staining intensity was quantified using Image-Pro Plus software. After extracting RNA from the whole fish, the expression changes of three genes (Cu/Zn-sod, Mn-sod, and ampk) in the fish were detected at the mRNA level using Quantitative Real-time PCR (RT-qPCR). The data were statistically analyzed using GraphPad software.

TRPV1 = TRPV1 gene expression in HaCaT after capsaicin stimulation (q-PCR); assay type: cell-based, human; conditions: 15 µM capsaicin, dose-dependent
Source text: as §1
• 1) Cell inoculation: HaCaT cells were inoculated into a 6-well plate at 6 × 10^5/well, cultured in an incubator (37 °C, 5% CO2) for 12 hrs, and a normal control group (0 µM capsaicin + vehicle control), a model control group […] concentration group (15 µM capsaicin + low concentration compound), a medium concentration group (15 µM capsaicin + medium concentration compound), and a high concentration group (15 µM capsaicin + high concentration compound) were respectively provided. • 2) Induction and administration: The culture solution in the 6-well plate was discarded and the administration operation was carried out. The culture solution containing the test substance and the capsaicin stock solution was added according to the above drug group, and 1 mL was added to each well. […]

[1] = tested on: wild-type AB strain zebrafish; assay: Zebrafish tail amputation model, inflammatory repair efficacy (inflammatory cells at the broken tail); assay type: in vivo; conditions: I-8 at 1, 3, and 9 µg/mL, 48 hrs; compared with the modeling group, statistical significance
Experimental: Experimental animal: Healthy wild-type AB strain zebrafish at 3 dpf (days post fertilization)
Evaluation of wound repair efficacy: Healthy AB strain zebrafish were taken as experimental animal, and randomly divided into blank control group, modeling group, positive control group, and sample group. The zebrafish in the blank control group were treated with culture water; the zebrafish in the modeling group were treated with culture water after cutting the caudal fin; the zebrafish in the positive control group and sample group were treated with 600 µg/mL hyaluronic acid and I-8 with different concentrations (1, 3, 9 µg/mL) respectively after cutting the caudal fin. The larva fish in above groups were placed in a constant temperature incubator at 28.5 °C and kept in continuous darkness for 48 hrs, with the culture medium changed once every 24 hrs. […] The data were statistically analyzed using GraphPad software.
Evaluation of inflammatory repair efficacy: As described above, the larva fish in each group were placed in a constant temperature incubator at 28.5 °C and kept in continuous darkness for 48 hrs. Inflammatory cells in the fish body were labeled with neutral red, and the number of inflammatory cells at the broken tail was counted. The data were statistically analyzed using GraphPad software.

O=S1(=O)Oc2cc(O)ccc2-c2ccc(O)cc21 [Compound I-8]
expression level of IL-1β (IL-1β): downregulating
expression of Mn-sod gene (Mn-sod): upregulated
expression level of TRPV1 (TRPV1): downregulating
number of inflammatory cells at the wound [1]: decreased
